According to PubChem BioAssay (NCI):
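Cultured in 96-well plates, cells were exposed to test compound for 48 hours across five concentrations. Abbreviation: GI50, concentration required for 50% inhibition of growth. Definition used: TGI = concentration required for complete inhibition of growth.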

Tests used:
Assay in all cases: NCI-60 cell line screen, 48 h
[1] = test system: 786-0 renal
[2] = test system: A498 renal
[3] = test system: A549 NSCLC
[4] = test system: ACHN renal
[5] = test system: BT-549 breast
[6] = test system: CAKI-1 renal
[7] = test system: CCRF-CEM leukemia
[8] = test system: COLO 205 colon
[9] = test system: DU-145 prostate
[10] = test system: EKVX NSCLC
[11] = test system: HCC-2998 colon
[12] = test system: HCT-116 colon
[13] = test system: HCT-15 colon
[14] = test system: HL-60(TB) leukemia
[15] = test system: HOP-62 NSCLC
[16] = test system: HOP-92 NSCLC
[17] = test system: HS 578T breast
[18] = test system: HT29 colon
[19] = test system: IGROV1 ovarian
[20] = test system: K-562 leukemia
[21] = test system: KM12 colon
[22] = test system: LOX IMVI melanoma
[23] = test system: M14 melanoma
[24] = test system: MALME-3M melanoma
[25] = test system: MCF7 breast
[26] = test system: MDA-MB-231 breast
[27] = test system: MDA-MB-435
[28] = test system: MDA-MB-468 breast
[29] = test system: MOLT-4 leukemia
[30] = test system: NCI-H226 lung
[31] = test system: NCI-H23 lung
[32] = test system: NCI-H460 lung
[33] = test system: NCI-H522 lung
[34] = test system: NCI/ADR-RES ovarian
[35] = test system: OVCAR-3 ovarian
[36] = test system: OVCAR-4 ovarian
[37] = test system: OVCAR-5 ovarian
[38] = test system: OVCAR-8 ovarian
[39] = test system: PC-3 prostate
[40] = test system: RPMI-8226 leukemia
[41] = test system: RXF 393 renal
[42] = test system: SF-268 CNS
[43] = test system: SF-295 CNS
[44] = test system: SF-539 CNS
[45] = test system: SK-MEL-2 melanoma
[46] = test system: SK-MEL-28 melanoma
[47] = test system: SK-MEL-5 melanoma
[48] = test system: SK-OV-3 ovarian
[49] = test system: SN12C renal
[50] = test system: SNB-19 CNS
[51] = test system: SNB-75 CNS
[52] = test system: SR leukemia
[53] = test system: SW-620 colon
[54] = test system: T-47D breast
[55] = test system: TK-10 renal
[56] = test system: U251 CNS
[57] = test system: UACC-257 melanoma
[58] = test system: UACC-62 melanoma
[59] = test system: UO-31 renal

Question: For `O=C(N/C(=C1/OCCN1Cc1ccccc1)[P+](c1ccccc1)(c1ccccc1)c1ccccc1)c1ccccc1`, which GI50 [1] is on record?
Answer: The GI50 was 10.7 µM.

Question: And the TGI [1]?
Answer: The TGI was 23.8 µM.

Question: What about the GI50 [2] of the same molecule?
Answer: The GI50 was 16.4 µM.

Question: And the TGI [2]?
Answer: Its TGI is 31.4 µM.

Question: And the GI50 [3]?
Answer: The GI50 was 15.1 µM.

Question: What about the TGI [3] of the same molecule?
Answer: Its TGI is 54.4 µM.

Question: And the GI50 [4]?
Answer: Its GI50 is 13.4 µM.

Question: And the TGI [4]?
Answer: The TGI was 26.5 µM.

Question: And the GI50 [5]?
Answer: The GI50 was 2.47 µM.

Question: And the TGI [5]?
Answer: The TGI was 8.75 µM.

Question: What about the GI50 [6] of the same molecule?
Answer: Its GI50 is 5.76 µM.

Question: And the TGI [6]?
Answer: Its TGI is 21.7 µM.

Question: And the GI50 [7]?
Answer: The GI50 was 3.84 µM.

Question: What about the TGI [7] of the same molecule?
Answer: The TGI was 29.9 µM.

Question: And the GI50 [8]?
Answer: The GI50 was 2.66 µM.

Question: And the TGI [8]?
Answer: Its TGI is 7.46 µM.

Question: And the GI50 [9]?
Answer: Its GI50 is 4.46 µM.

Question: And the TGI [9]?
Answer: Its TGI is 17.4 µM.

Question: And the GI50 [10]?
Answer: The GI50 was 3.63 µM.

Question: And the TGI [10]?
Answer: Its TGI is 12.2 µM.

Question: And the GI50 [11]?
Answer: Its GI50 is 2.68 µM.

Question: And the TGI [11]?
Answer: Its TGI is 9.86 µM.

Question: And the GI50 [12]?
Answer: The GI50 was 3.09 µM.

Question: What about the TGI [12] of the same molecule?
Answer: Its TGI is 12.9 µM.

Question: What about the GI50 [13] of the same molecule?
Answer: The GI50 was 15.6 µM.

Question: And the TGI [13]?
Answer: The TGI was 30.2 µM.

Question: What about the GI50 [14] of the same molecule?
Answer: Its GI50 is 1.78 µM.

Question: And the TGI [14]?
Answer: Its TGI is 5.46 µM.

Question: What about the GI50 [15] of the same molecule?
Answer: The GI50 was 11.3 µM.

Question: What about the TGI [15] of the same molecule?
Answer: Its TGI is 25 µM.

Question: And the GI50 [16]?
Answer: Its GI50 is 1.99 µM.

Question: What about the TGI [16] of the same molecule?
Answer: The TGI was 7.37 µM.

Question: And the GI50 [17]?
Answer: The GI50 was 3.07 µM.

Question: And the TGI [17]?
Answer: Its TGI is 20.7 µM.

Question: What about the GI50 [18] of the same molecule?
Answer: The GI50 was 6.13 µM.

Question: And the TGI [18]?
Answer: The TGI was 29.8 µM.

Question: And the GI50 [19]?
Answer: The GI50 was 2.47 µM.

Question: And the TGI [19]?
Answer: The TGI was 9.71 µM.

Question: And the GI50 [20]?
Answer: The GI50 was 2.08 µM.

Question: And the TGI [20]?
Answer: The TGI was > 100 µM.

Question: And the GI50 [21]?
Answer: The GI50 was 3.4 µM.

Question: What about the TGI [21] of the same molecule?
Answer: Its TGI is 11.9 µM.

Question: And the GI50 [22]?
Answer: Its GI50 is 4.12 µM.

Question: What about the TGI [22] of the same molecule?
Answer: Its TGI is 15.1 µM.

Question: What about the GI50 [23] of the same molecule?
Answer: Its GI50 is 3.67 µM.

Question: And the TGI [23]?
Answer: Its TGI is 15.7 µM.

Question: And the GI50 [24]?
Answer: The GI50 was 1.66 µM.

Question: What about the TGI [24] of the same molecule?
Answer: Its TGI is 3.7 µM.

Question: And the GI50 [25]?
Answer: Its GI50 is 2.71 µM.

Question: And the TGI [25]?
Answer: Its TGI is 11.3 µM.

Question: And the GI50 [26]?
Answer: The GI50 was 2.1 µM.

Question: And the TGI [26]?
Answer: The TGI was 5.81 µM.

Question: And the GI50 [27]?
Answer: Its GI50 is 3.2 µM.

Question: What about the TGI [27] of the same molecule?
Answer: The TGI was 12 µM.

Question: What about the GI50 [28] of the same molecule?
Answer: The GI50 was 1.45 µM.

Question: And the TGI [28]?
Answer: The TGI was 5.68 µM.

Question: What about the GI50 [29] of the same molecule?
Answer: Its GI50 is 3.36 µM.

Question: What about the TGI [29] of the same molecule?
Answer: Its TGI is 68.3 µM.

Question: And the GI50 [30]?
Answer: The GI50 was 3.91 µM.

Question: What about the TGI [30] of the same molecule?
Answer: The TGI was 15.6 µM.

Question: And the GI50 [31]?
Answer: Its GI50 is 3.16 µM.

Question: And the TGI [31]?
Answer: Its TGI is 13.3 µM.

Question: And the GI50 [32]?
Answer: The GI50 was 3.71 µM.

Question: And the TGI [32]?
Answer: The TGI was 14.6 µM.

Question: What about the GI50 [33] of the same molecule?
Answer: Its GI50 is 1.83 µM.

Question: And the TGI [33]?
Answer: The TGI was 6.36 µM.

Question: What about the GI50 [34] of the same molecule?
Answer: Its GI50 is > 100 µM.

Question: What about the TGI [34] of the same molecule?
Answer: Its TGI is > 100 µM.

Question: What about the GI50 [35] of the same molecule?
Answer: The GI50 was 2.78 µM.

Question: What about the TGI [35] of the same molecule?
Answer: Its TGI is 10.8 µM.

Question: And the GI50 [36]?
Answer: The GI50 was 5 µM.

Question: What about the TGI [36] of the same molecule?
Answer: The TGI was 21.8 µM.

Question: What about the GI50 [37] of the same molecule?
Answer: Its GI50 is 13.5 µM.

Question: And the TGI [37]?
Answer: Its TGI is 26.8 µM.

Question: What about the GI50 [38] of the same molecule?
Answer: The GI50 was 4.25 µM.

Question: What about the TGI [38] of the same molecule?
Answer: Its TGI is 16.9 µM.

Question: What about the GI50 [39] of the same molecule?
Answer: Its GI50 is 3.77 µM.

Question: And the TGI [39]?
Answer: Its TGI is 16.4 µM.

Question: What about the GI50 [40] of the same molecule?
Answer: The GI50 was 1.14 µM.

Question: What about the TGI [40] of the same molecule?
Answer: Its TGI is 3.94 µM.

Question: What about the GI50 [41] of the same molecule?
Answer: The GI50 was 2.46 µM.

Question: What about the TGI [41] of the same molecule?
Answer: Its TGI is 10.3 µM.

Question: What about the GI50 [42] of the same molecule?
Answer: Its GI50 is 3.41 µM.

Question: And the TGI [42]?
Answer: The TGI was 15.7 µM.

Question: And the GI50 [43]?
Answer: The GI50 was 9.92 µM.

Question: What about the TGI [43] of the same molecule?
Answer: The TGI was 21.9 µM.

Question: And the GI50 [44]?
Answer: The GI50 was 6.59 µM.

Question: What about the TGI [44] of the same molecule?
Answer: Its TGI is 19.6 µM.

Question: And the GI50 [45]?
Answer: The GI50 was 2.36 µM.

Question: What about the TGI [45] of the same molecule?
Answer: Its TGI is 6.08 µM.

Question: What about the GI50 [46] of the same molecule?
Answer: Its GI50 is 3.75 µM.

Question: And the TGI [46]?
Answer: Its TGI is 14.9 µM.

Question: And the GI50 [47]?
Answer: The GI50 was 1.58 µM.

Question: What about the TGI [47] of the same molecule?
Answer: Its TGI is 2.93 µM.

Question: And the GI50 [48]?
Answer: Its GI50 is 10.3 µM.

Question: And the TGI [48]?
Answer: The TGI was 27.2 µM.

Question: And the GI50 [49]?
Answer: The GI50 was 3.34 µM.

Question: And the TGI [49]?
Answer: Its TGI is 11.7 µM.

Question: And the GI50 [50]?
Answer: Its GI50 is 2.79 µM.

Question: What about the TGI [50] of the same molecule?
Answer: Its TGI is 10.7 µM.

Question: And the GI50 [51]?
Answer: Its GI50 is 1.62 µM.

Question: What about the TGI [51] of the same molecule?
Answer: The TGI was 10.7 µM.

Question: And the GI50 [52]?
Answer: Its GI50 is 2.7 µM.

Question: And the TGI [52]?
Answer: The TGI was 11.6 µM.

Question: And the GI50 [53]?
Answer: Its GI50 is 4.51 µM.

Question: What about the TGI [53] of the same molecule?
Answer: The TGI was 17.1 µM.

Question: What about the GI50 [54] of the same molecule?
Answer: Its GI50 is 2.41 µM.

Question: And the TGI [54]?
Answer: Its TGI is 12.9 µM.

Question: And the GI50 [55]?
Answer: The GI50 was 4.06 µM.

Question: What about the TGI [55] of the same molecule?
Answer: The TGI was 16.8 µM.

Question: And the GI50 [56]?
Answer: The GI50 was 3.24 µM.

Question: And the TGI [56]?
Answer: Its TGI is 13 µM.

Question: What about the GI50 [57] of the same molecule?
Answer: The GI50 was 2.22 µM.

Question: And the TGI [57]?
Answer: The TGI was 5.97 µM.

Question: And the GI50 [58]?
Answer: Its GI50 is 2.05 µM.

Question: And the TGI [58]?
Answer: The TGI was 6.71 µM.

Question: What about the GI50 [59] of the same molecule?
Answer: The GI50 was 15.5 µM.

Question: And the TGI [59]?
Answer: Its TGI is 29.1 µM.
